Legend:
[1] = system: phospho-Akt, HER3, RTKs and intracellular kinases in HCC1937 cells; assay: phospho-RTK / phospho-kinase arrays and Western blotting in HCC1937 cells; assay type: cell-based, human
Protocol: FIG. 1A. siRNA screen to identify kinases that potentially compensate for PI3K inhibition. HCC1937 breast cancer cells were treated with the indicated amounts of compound A for 6, 24, or 72 hours in medium containing 2.5% FBS. Cell lysates analyzed by immunoblotting with the indicated antibodies.
(§1) FIGS. 3A and 3B. PI3K inhibition induces phosphorylation of RTKs and intracellular kinases. HCC1937 cells were treated with 10 μM compound A in medium containing 2.5% FBS for 0, 8, 24, or 48 hours. Media and drugs were replenished every 24 hours. Lysates were used to probe phospho-RTK arrays (FIG. 3A) or phospho-kinase arrays (FIG. 3B) (R&D systems). Corner spots are positive controls. Candidate kinases from the siRNA screen that are also phosphorylated upon treatment with compound A are shown in red.
as §1, with “4A” for “3A”, “4B.” for “3B. PI3K inhibition induces phosphorylation of RTKs and intracellular kinases.”, “(A)” for “(FIG. 3A)”, “(B)” for “(FIG. 3B)”
The purpose of the present study is to identify kinases and kinase-regulated signaling pathways that compensate for PI3K inhibition in human breast cancer cells. To this end, siRNA screen is employed targeting 779 human kinases in order to determine if downregulation of specific kinases increases the sensitivity of HCC1937 human breast cancer cells to the PI3K inhibitor compound A, which a compound of formula I and of Table 1. […] Following reverse transfection with the siRNA library, cells are treated with either DMSO or 10 μM compound A for 72 hours in a medium containing 2.5% fetal bovine serum (FIGS. 1A and 2) and the alamar blue assay is used to measure cell viability FIG. 1B. […] HCC1937 cells were treated with 10 μM compound A in medium containing 2.5% FBS for 0, 2, 8, or 24 hours. RNA was isolated with Trizol and purified using the RNeasy column (Qiagen). Gene expression from three independent experiments was measured using the Gene titan 3′ microarray. *, p<0.05; **, p<0.01 versus 0 hours, as shown in FIG. 5.

[2] = system: human breast cancer cell lines; assay: three-dimensional (3D) growth in Matrigel; assay type: cell-based; conditions: 3D Matrigel, 2.5% FBS, read-out: IC50 in cells tested in 3D
Protocol: Cells were seeded in 8-well chamber slides in growth-factor reduced Matrigel (BD Biosciences, San Jose Calif., USA)±compound A according to published methods. Fresh medium and drugs were replenished every third day. Colonies were photographed with an inverted light microscope with an ocular magnification of 10 times on the days recited in figures herein.
A panel of breast cancer cell lines with dysregulated PI3K activity was treated with increasing doses of compound A under two- and three-dimensional (2D and 3D) growth conditions. All experiments were conducted in 2.5% FBS-containing media, unless otherwise stated. […] This was further confirmed by immunoblot analysis of biomarkers of cell death and G1-S cell cycle transition in lysates from cells treated for 24 hours with compound A as shown in FIG. 10B.

[3] = system: HER3, pHER3^Y1289, pAKT^S473; assay: immunohistochemistry of BT474 xenografts; assay type: in vivo, mice; conditions: day 28
Protocol: FIG. 18B depicts photomicrographs of immunohistochemistry sections from formalin-fixed, paraffin-embedded tumor blocks. Xenografts were harvested on day 28, 1 hour after the last dose of lapatinib and/or compound A. Antibodies used were against HER3, pHER3^Y1289, and pAKT^S473. Photographs were taken at 400× magnification (scale bar: 50 μm).
All tumor samples (collected within 1 hour of last treatment) were fixed in 10% neutral buffered formalin for 24 hours at room temperature, followed by dehydration and paraffin embedding. Immunostaining was done on 5-μm tissue sections. After deparaffinization in xylene and graded alcohols heat-induced antigen retrieval was performed in a pH 6.0 citrate buffer followed by incubation with 3% hydrogen peroxide for 20 minutes, with protein block (Dako) for 10 minutes, and finally with primary antibody overnight at 4° C. The Envision Visualization System (Dako, Carpinteria, Calif., USA) was used, followed by DAB as chromagen and counterstained with hematoxylin. Tumor sections were studied on a light microscope with an ocular magnification of 400 times. Average percentage and intensity of tumor cell staining was calculated as a histoscore (H-score) (as described in Goulding, H., et al. (1995), Hum. Pathol. 26:291-294, which is incorporated herein by reference in its entirety). An expert pathologist (MGK) scoring the sections was blinded to the type of treatment.
Using immunohistochemistry (IHC), experiments were performed to examine pharmacodynamic biomarkers of target inactivation in xenografts after 28 days of treatment. […] Therefore, experiments were performed to quantify differences in pAKT^S473 expression in both cytoplasmic and nuclear compartments in xenograft sections.

COc1ccc(Cl)c(Nc2nc3ccccc3nc2NS(=O)(=O)c2cccc(NC(=O)C(C)(C)N)c2)c1 [Compound A]
phospho-Akt and HER3 by Western blotting ([1]; HCC1937): decreases phospho-Akt at S473 and T308 and increases phospho- and total HER3
phosphorylation of MAP kinases ([1]; HCC1937): increases phosphorylation of the MAP kinases ERK, JNK, and p38 MAPK
phospho-Akt ([1]; HCC1937, 10 μM, 48 hours): phosphorylation at S473 is partially restored
phospho-Akt ([1]; HCC1937, 10 μM, eight and 24 hour treatments): suppressed phospho-Akt at both S473 and T308
expression and/or phosphorylation of RTKs and intracellular kinases ([1]; HCC1937, 10 μM, within 8-48 hours): increased expression and/or phosphorylation of many RTKs and intracellular kinases
IC50 [2]: ≤ 6 µM
nuclear pAKT^S473 by IHC [3]: statistically inhibited nuclear pAKT levels
pHER3 by IHC [3]: did not reduce membrane pHER3
